Test results from article PMC11951083, “Highly Specific Miniaturized Fluorescent Monoacylglycerol Lipase Probes Enable Translational Research” (Journal of the American Chemical Society, 2025).

Assays:
H2 (h) = H2 (h) (Homo sapiens, UniProt P25021); test: H2 (h) (antagonist radioligand); conditions: read-out: Inhibition H2 (h) (antagonist radioligand)
CDK2 (h) (cycA) = CDK2 (h) (cycA) (Homo sapiens, UniProt P24941); test: CDK2 (h) (cycA); conditions: read-out: Inhibition CDK2 (h) (cycA)
5-HT transporter (h) = 5-HT transporter (h) (Homo sapiens, UniProt P31645); test: 5-HT transporter (h) (antagonist radioligand); conditions: read-out: Inhibition 5-HT transporter (h) (antagonist radioligand)
H1 (h) = H1 (h) (Homo sapiens, UniProt P35367); test: H1 (h) (antagonist radioligand); conditions: read-out: Inhibition H1 (h) (antagonist radioligand)
M1 (h) = biological target: T1, M1 (h) (Homo sapiens, UniProt P11229); test: M1 (h) (antagonist radioligand); conditions: read-out: Inhibition M1 (h) (antagonist radioligand)
T1 sequence (P11229 1-460): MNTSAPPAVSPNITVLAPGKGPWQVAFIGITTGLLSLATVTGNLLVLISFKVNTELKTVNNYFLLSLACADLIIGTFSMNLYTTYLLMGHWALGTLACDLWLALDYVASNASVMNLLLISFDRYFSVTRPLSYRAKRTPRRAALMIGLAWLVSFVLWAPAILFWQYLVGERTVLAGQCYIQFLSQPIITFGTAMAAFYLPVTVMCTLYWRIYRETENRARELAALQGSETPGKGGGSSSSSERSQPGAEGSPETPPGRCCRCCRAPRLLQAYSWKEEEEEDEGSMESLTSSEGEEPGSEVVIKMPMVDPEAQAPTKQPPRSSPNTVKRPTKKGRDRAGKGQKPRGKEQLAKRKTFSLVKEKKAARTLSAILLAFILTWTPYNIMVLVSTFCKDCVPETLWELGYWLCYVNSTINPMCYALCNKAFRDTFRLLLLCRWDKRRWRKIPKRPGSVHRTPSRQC

PDE4D2 (h) = PDE4D2 (h) (Homo sapiens, UniProt Q08499); test: PDE4D2 (h); conditions: read-out: Inhibition PDE4D2 (h)
D1 (h) = D1 (h) (Homo sapiens, UniProt P21728); test: D1 (h) (antagonist radioligand); conditions: read-out: Inhibition D1 (h) (antagonist radioligand)
PDE3B (h) = PDE3B (h) (Homo sapiens, UniProt Q13370); test: PDE3B (h); conditions: read-out: Inhibition PDE3B (h)
MMP-9 (h) = MMP-9 (h) (Homo sapiens, UniProt P14780); test: MMP-9 (h); conditions: read-out: Inhibition MMP-9 (h)
AR(h) = biological target: T2, AR(h) (Homo sapiens, UniProt P10275); test: AR(h) (agonist radioligand); conditions: read-out: Inhibition AR(h) (agonist radioligand)
T2 sequence (P10275 1-920): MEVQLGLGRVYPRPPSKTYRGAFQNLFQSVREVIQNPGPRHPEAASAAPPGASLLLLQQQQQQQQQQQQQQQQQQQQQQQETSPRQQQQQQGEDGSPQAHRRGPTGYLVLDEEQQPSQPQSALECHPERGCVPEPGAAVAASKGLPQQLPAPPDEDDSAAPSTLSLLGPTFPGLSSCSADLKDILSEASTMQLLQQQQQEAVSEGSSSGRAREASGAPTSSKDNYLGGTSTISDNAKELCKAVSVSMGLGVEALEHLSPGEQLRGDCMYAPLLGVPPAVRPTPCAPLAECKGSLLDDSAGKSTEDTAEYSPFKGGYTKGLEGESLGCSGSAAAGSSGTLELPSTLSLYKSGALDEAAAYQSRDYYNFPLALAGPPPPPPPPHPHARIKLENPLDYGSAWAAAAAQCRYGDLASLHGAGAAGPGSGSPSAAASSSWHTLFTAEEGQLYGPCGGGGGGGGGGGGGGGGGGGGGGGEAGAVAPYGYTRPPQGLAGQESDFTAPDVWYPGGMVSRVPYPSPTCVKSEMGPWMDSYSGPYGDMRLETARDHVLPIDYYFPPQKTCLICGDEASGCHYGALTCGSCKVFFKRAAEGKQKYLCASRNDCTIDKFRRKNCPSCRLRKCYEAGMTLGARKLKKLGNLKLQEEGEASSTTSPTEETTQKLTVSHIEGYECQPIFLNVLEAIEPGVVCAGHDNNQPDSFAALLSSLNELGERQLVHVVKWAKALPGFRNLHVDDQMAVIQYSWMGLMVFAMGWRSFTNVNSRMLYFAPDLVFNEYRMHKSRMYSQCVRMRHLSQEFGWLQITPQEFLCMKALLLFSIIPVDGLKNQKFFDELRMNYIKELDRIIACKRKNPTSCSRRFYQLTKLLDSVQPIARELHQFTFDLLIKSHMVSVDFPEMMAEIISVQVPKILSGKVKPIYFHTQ

Cl- channel (GABA-gated) = Cl- channel (GABA-gated) (antagonist radioligand); conditions: 10 µM
[1] = biological target: T3, MAO-A (h) monoamine oxydase A (Homo sapiens, UniProt P21397); test: MAO-A (h) monoamine oxydase A, enzymatic assay; conditions: read-out: Inhibition MAO-A (h) monoamine oxydase A, enzymatic assay
T3 sequence (P21397 1-527): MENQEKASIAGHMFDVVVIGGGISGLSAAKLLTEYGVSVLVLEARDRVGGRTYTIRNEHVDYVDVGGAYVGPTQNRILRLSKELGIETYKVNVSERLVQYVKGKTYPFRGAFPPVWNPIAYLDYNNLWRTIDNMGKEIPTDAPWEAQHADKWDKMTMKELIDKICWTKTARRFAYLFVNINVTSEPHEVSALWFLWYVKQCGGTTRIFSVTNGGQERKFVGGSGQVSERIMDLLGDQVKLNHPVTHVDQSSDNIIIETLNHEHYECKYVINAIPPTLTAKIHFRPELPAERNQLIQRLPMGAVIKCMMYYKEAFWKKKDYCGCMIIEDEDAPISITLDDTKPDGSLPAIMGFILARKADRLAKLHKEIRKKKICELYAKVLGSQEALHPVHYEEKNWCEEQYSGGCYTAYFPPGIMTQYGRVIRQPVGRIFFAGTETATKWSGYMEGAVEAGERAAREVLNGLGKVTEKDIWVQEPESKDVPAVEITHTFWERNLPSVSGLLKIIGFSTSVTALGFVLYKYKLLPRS

[2] = biological target: xanthine oxidase/ superoxide O2- scavenging (Bos taurus, UniProt P80457); test: xanthine oxidase/ superoxide O2- scavenging; conditions: read-out: Inhibition xanthine oxidase/ superoxide O2- scavenging
Sequence of xanthine oxidase/ superoxide O2- scavenging (P80457 whole entry): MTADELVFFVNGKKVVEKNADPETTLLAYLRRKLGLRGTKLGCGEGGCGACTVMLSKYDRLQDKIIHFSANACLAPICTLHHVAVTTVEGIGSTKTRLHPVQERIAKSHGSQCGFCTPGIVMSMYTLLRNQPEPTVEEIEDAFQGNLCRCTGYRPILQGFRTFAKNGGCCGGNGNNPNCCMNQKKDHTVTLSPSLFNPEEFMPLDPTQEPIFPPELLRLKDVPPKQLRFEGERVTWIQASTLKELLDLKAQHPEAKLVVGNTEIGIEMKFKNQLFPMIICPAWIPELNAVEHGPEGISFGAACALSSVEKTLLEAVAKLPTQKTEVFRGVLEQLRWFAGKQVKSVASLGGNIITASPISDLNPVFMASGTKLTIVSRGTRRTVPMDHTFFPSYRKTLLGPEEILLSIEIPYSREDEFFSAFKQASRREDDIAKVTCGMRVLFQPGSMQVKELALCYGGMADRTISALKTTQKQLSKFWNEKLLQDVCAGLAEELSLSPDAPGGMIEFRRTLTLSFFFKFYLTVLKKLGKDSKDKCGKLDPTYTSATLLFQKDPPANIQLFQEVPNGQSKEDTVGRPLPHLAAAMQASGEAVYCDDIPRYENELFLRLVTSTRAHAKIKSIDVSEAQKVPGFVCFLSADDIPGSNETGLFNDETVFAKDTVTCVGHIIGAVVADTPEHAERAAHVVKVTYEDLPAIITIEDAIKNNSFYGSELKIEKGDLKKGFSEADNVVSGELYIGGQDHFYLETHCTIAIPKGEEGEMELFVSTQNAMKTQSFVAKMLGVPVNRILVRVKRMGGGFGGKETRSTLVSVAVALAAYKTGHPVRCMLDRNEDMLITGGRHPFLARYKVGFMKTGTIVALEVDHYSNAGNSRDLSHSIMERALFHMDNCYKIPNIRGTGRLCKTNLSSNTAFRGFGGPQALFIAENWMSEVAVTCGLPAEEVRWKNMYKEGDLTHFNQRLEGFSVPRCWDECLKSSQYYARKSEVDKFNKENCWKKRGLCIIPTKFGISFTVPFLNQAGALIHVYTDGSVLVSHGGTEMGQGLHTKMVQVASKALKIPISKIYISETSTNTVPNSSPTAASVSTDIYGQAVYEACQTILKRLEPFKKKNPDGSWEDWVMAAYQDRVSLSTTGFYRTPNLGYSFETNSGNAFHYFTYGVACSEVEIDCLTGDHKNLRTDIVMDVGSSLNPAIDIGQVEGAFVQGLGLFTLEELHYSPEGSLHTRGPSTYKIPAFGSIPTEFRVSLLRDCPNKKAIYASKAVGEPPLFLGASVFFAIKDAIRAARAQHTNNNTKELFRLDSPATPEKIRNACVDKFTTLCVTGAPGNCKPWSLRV

Sequence of H1 (h) (P35367 whole entry): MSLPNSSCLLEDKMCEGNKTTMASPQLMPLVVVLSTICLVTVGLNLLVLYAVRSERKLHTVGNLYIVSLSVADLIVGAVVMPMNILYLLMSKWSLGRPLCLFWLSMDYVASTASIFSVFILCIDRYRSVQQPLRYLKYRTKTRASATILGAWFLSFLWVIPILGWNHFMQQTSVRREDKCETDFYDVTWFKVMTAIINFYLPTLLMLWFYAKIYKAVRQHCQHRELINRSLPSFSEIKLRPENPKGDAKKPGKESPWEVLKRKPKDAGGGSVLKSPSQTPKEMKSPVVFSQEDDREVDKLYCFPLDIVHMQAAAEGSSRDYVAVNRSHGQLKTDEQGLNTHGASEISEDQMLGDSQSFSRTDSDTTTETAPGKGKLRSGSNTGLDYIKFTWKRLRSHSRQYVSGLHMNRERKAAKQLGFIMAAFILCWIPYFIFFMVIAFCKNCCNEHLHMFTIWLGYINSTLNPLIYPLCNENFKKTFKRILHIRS
Sequence of D1 (h) (P21728 whole entry): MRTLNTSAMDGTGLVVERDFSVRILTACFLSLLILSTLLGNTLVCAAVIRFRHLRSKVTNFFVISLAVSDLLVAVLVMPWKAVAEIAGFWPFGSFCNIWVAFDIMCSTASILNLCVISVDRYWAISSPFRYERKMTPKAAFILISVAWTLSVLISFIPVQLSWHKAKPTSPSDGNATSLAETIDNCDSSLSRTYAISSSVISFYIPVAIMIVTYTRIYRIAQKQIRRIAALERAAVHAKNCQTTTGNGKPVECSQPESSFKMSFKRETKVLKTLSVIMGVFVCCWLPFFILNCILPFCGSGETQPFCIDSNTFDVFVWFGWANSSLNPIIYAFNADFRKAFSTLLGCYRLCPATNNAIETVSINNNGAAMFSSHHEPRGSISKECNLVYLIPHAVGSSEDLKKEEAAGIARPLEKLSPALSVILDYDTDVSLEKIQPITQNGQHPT
Sequence of H2 (h) (P25021 whole entry): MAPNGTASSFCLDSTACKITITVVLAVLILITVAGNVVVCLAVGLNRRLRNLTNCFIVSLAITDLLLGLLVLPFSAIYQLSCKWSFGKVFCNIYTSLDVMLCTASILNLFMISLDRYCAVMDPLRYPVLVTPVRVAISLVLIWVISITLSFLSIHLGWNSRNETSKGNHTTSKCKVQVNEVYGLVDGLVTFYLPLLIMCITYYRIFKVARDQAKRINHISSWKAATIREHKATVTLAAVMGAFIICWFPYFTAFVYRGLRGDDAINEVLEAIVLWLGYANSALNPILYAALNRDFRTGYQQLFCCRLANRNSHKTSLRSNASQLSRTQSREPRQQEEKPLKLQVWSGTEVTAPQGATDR
Sequence of 5-HT transporter (h) (P31645 whole entry): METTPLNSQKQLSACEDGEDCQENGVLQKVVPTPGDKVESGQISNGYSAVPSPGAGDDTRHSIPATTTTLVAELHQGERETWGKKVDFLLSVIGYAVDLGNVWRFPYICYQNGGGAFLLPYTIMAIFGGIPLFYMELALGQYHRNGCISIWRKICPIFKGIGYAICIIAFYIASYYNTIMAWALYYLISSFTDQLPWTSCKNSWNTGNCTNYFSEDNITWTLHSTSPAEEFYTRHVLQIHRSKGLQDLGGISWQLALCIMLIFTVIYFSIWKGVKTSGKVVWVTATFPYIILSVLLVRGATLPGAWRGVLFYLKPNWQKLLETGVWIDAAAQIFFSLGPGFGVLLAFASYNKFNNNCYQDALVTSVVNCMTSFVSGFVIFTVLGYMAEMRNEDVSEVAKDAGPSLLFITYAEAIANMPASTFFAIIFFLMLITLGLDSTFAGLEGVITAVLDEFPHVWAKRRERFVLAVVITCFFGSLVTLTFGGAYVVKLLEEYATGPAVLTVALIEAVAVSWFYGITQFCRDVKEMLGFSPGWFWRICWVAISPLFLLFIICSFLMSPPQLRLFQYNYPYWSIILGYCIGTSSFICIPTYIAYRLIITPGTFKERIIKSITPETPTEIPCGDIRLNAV
Sequence of PDE3B (h) (Q13370 whole entry): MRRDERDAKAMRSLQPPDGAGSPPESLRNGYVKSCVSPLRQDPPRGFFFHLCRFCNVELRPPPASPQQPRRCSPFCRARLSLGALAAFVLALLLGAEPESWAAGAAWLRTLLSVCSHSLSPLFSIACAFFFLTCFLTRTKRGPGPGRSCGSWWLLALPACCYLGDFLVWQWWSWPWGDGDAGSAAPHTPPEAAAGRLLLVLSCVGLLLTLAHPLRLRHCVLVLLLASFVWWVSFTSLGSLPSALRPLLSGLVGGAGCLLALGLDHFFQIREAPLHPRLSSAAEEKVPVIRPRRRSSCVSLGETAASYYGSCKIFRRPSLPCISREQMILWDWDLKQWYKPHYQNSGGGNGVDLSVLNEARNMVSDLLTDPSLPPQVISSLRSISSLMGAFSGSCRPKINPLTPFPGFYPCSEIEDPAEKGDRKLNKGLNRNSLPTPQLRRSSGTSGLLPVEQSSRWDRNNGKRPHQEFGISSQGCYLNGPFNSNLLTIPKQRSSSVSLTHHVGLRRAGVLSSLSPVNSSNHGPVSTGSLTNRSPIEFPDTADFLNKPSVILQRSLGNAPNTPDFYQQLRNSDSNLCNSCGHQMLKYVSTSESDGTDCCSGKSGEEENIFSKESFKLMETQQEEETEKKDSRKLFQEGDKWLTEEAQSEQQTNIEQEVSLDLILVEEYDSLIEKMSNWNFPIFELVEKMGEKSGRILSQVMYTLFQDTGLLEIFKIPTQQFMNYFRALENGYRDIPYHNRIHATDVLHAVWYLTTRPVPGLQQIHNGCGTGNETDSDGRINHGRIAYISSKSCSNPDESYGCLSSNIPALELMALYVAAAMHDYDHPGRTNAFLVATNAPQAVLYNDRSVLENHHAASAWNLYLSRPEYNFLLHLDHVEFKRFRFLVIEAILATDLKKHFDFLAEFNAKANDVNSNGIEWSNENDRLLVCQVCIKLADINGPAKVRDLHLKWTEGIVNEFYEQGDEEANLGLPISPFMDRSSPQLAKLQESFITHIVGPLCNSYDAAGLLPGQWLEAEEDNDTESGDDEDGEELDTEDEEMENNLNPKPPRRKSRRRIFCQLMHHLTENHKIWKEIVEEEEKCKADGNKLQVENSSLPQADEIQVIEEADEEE
Sequence of MMP-9 (h) (P14780 94-707): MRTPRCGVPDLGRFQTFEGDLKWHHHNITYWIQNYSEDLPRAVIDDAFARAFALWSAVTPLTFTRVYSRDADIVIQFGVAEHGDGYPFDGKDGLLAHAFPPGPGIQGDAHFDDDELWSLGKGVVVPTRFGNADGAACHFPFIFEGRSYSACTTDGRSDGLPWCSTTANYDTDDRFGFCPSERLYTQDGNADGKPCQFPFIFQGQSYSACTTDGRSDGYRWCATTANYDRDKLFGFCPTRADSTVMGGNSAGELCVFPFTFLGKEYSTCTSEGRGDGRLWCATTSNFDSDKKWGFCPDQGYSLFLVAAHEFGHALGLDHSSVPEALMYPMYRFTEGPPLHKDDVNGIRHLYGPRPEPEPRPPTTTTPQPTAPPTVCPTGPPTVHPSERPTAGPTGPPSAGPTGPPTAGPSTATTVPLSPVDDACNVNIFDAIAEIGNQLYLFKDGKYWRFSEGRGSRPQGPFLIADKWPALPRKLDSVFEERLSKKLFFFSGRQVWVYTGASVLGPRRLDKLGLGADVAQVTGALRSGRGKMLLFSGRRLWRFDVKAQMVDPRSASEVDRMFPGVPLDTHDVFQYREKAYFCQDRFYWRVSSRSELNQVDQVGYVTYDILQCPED

| Structure (SMILES) | inhibition at 10 µM (H2 (h)) | inhibition at 10 µM (CDK2 (h) (cycA)) | inhibition at 10 µM (5-HT transporter (h)) | inhibition at 10 µM (H1 (h)) | inhibition at 10 µM (M1 (h)) | inhibition at 10 µM (PDE4D2 (h)) | inhibition at 10 µM (D1 (h)) | inhibition at 10 µM (PDE3B (h)) | inhibition at 10 µM (MMP-9 (h)) | inhibition at 10 µM (AR(h)) | Inhibition Cl- channel (GABA-gated) (antagonist radioligand) (Cl- channel (GABA-gated)) | inhibition at 10 µM [1] | inhibition at 10 µM [2] |
| --- | --- | --- | --- | --- | --- | --- | --- | --- | --- | --- | --- | --- | --- |
| O=C(OC(C(F)(F)F)C(F)(F)F)N1CC2(CC(CC3=C4C=CC=[N+]4[B-](F)(F)n4cccc43)C2)C1 [Compound 2] | -18.7% | 6.3% | -4.8% | 5.5% | 26% | -0.6% | -1.2% | 6.3% | 4.5% | 4.2% | 51,90% | -1.3% | 1.8% |
| O=C1CO[C@H]2CCN(C(=O)N3CC4(CC(CC5=C6C=CC(c7ccc[nH]7)=[N+]6[B-](F)(F)n6cccc65)C4)C3)C[C@H]2N1 [Compound 4a] | -34.8% | -8.3% | -9.6% | 1.3% | 4% | 10.8% | 7.5% | 13% | 47% | -1.4% | 40,30% | 4.3% | 24.1% |
| O=C(O[C@H](CO)C(F)(F)F)N1CC2(CC(CC3=C4C=CC=[N+]4[B-](F)(F)n4cccc43)C2)C1 [Compound 1] | -10.7% | 7.8% | 13% | 30.4% | 33.5% | 18% | 8.1% | 15.9% |  | -14.2% | 41,90% | 22.6% | -29.7% |
| O=C(OC(C(F)(F)F)C(F)(F)F)N1CC2(CC(CC3=C4C=CC(c5ccc[nH]5)=[N+]4[B-](F)(F)n4cccc43)C2)C1 [Compound 2a] | -48.6% | -5.8% | -12.9% | 4.4% | -0.7% | -10.8% | 6.1% | 12.6% | 9.7% | 6% | 40,80% | -3% | 7.8% |
| O=C(N1CC2(CC(CC3=C4C=CC=[N+]4[B-](F)(F)n4cccc43)C2)C1)N1CC2(CC(n3cnc(C4CC4)n3)C2)C1 [Compound 5] | -1.9% | 6.5% | 56.5% | 51.5% | 14.7% | 11.3% | 7.3% | 10.7% | 16.8% | -19.8% | 20,90% | 4.4% | -16.6% |
